Measured values reported in patent US7662936B2, “Mass spectrometry of antibody conjugates” (priority 2004, dated 2010).
Where a SMILES comes first, the peptide text is derived from it. [ ]: non-standard residue; d: D form. The star is where a group is joined. Dolaproine = CO[C@@H]([C@@H]1CCCN1)[C@@H](C)C(=O)O; Dil = CC[C@H](C)[C@H](NC)[C@@H](CC(=O)O)OC; X1 = C[C@@H](N*)[C@@H](O)c1ccccc1; NMeV = CN[C@H](C(=O)O)C(C)C

How the values were obtained:
[1] = Rat study of trastuzumab-MC-val-cit-PAB-MMAE (Example 8): clinical observations, mortality, body weight; format: in vivo, Sprague-Dawley rats
Protocol: Groups 2 and 3 were administered a preparation of Tr-MC-val-cit-PAB-MMAE with average drug loading of 8.7 MMAE/Tr. Groups 4, 5, and 6 were administered a preparation of Tr-MC-val-cit-PAB-MMAE with average drug loading of 5.3 MMAE/Tr. […] Group 6 received the highest dose of 4209 μg MMAE/m^2.
The dose solutions were administered by a single intravenous bolus tail-vein injection on Study Day 1 at a dose volume of 10 ml/kg. […] Body weights of the animals were measured pre-dose on Study Day 1 and daily thereafter. Whole blood was collected into EDTA containing tubes for hematology parameters and complete blood counts. Whole blood was collected into serum separator tubes for clinical chemistry parameters. Blood samples were collected pre-dose on […], and on Study Days 3 and 5. Whole blood was also collected into lithium heparin containing tubes and the plasma was frozen at −70° C. for later analysis.

[2] = cited from earlier work
[3] = more cytotoxic; cited from earlier work

| Structure (SMILES) | appearance of animals throughout the 5 days on study ([1]; Group 7, free MMAE 0.206 mg/kg, single iv bolus, 6 female rats) | changes in body weight ([1]; groups 2, 4 and 7, comparable amounts of MMAE (840 ug/m^2)) | adverse effects leading to discontinuation of clinical trials [2] | cytotoxicity relative to conventional cancer chemotherapeutic agents like methotrexate, daunorubicin, and vincristine [3] |
| --- | --- | --- | --- | --- |
| CC[C@H](C)[C@@H]([C@@H](CC(=O)N1CCC[C@H]1[C@H](OC)[C@@H](C)C(=O)N[C@H](C)[C@@H](O)c1ccccc1)OC)N(C)C(=O)[C@@H](NC(=O)[C@@H](NC)C(C)C)C(C)C [MMAE] (H-[NMeV]V[Dil][Dolaproine]-X1) | appeared healthy | comparable changes in body weight | – | – |
| COc1cc2cc(c1Cl)N(C)C(=O)C[C@H](OC(=O)[C@H](C)N(C)C(C)=O)[C@]1(C)O[C@H]1[C@H](C)[C@@H]1C[C@@](O)(NC(=O)O1)[C@H](OC)/C=C/C=C(\C)C2 [Maytansine] | – | – | serious adverse effects on the central nervous system and gastrointestinal system | 100-to 1000 fold |
